# Measured values from publication PMC10743905, “Design, Synthesis, and In Vitro and In Vivo Bioactivity Studies of Hydrazide–Hydrazones of 2,4-Dihydroxybenzoic Acid” (International Journal of Molecular Sciences, 2023).
# Test system: Candida albicans ATCC 10231
# Assay: Broth microdilution MIC/MFC
# Assay type: cell-based
# Settings: not given
# Description: (§1) In vitro antimicrobial activity assays - Methodology
# (§2) The examined compounds 1 - 24 were screened in vitro for antibacterial and antifungal activities using the broth microdilution method according to procedure reported earlier by our research group and European Committee on Antimicrobial Susceptibility Testing (EUCAST) and Clinical and Laboratory Standards Institute (CLSI) guidelines against a panel of reference and clinical or saprophytic strains of microorganisms, in-cluding Gram-positive bacteria, Staphylococcus aureus ATCC 43300 (Methicillin Resistant S. aureus – MRSA), Staphylococcus aureus ATCC 29213 (Methicillin Susceptible S. aureus – MSSA), Staphylococcus epidermidis ATCC 12228, Enterococcus faecalis ATCC 29212, Micro-coccus luteus ATCC 10240, Bacillus subtilis ATCC 6633 and Bacillus cereus ATCC 10876), Gram-negative bacteria (Bordetella bronchiseptica ATCC 4617, Escherichia coli ATCC 25922, Klebsiella pneumoniae ATCC 13883, Proteus mirabilis ATCC 12453, Salmonella typhimurium ATCC 14028 and Pseudomonas aeruginosa ATCC 9027) and fungi belonging to yeasts (Can-dida albicans ATCC 10231, Candida albicans ATCC 2091, Candida parapsilosis ATCC 22019, Candida glabrata ATCC 90030 and Candida krusei ATCC 14243). The microorganisms be-longing to ATCC came from American Type Culture Collection, routinely used for the evaluation of antimicrobials. All the used microbial cultures were first subcultured on nu-trient agar or Sabouraud agar at 35°C for 18-24 h or 30°C for 24-48 h for bacteria and fungi, […]
# The surface of Mueller-Hinton agar (for bacteria) and RPMI 1640 with MOPS (for fungi) were inoculated with the suspensions of bacterial or fungal species. Microbial suspensions were prepared in sterile saline with an optical density of McFarland standard scale 0.5.
# Samples containing examined compounds were dissolved in dimethyl sulfoxide (DMSO).
# Furthermore, bacterial and fungal suspensions were put onto Petri dishes with solid me-dia containing 2 mg/mL of the tested compounds followed incubation at 37°C for 24h and 30°C for 48h for bacteria and fungi, respectively. The inhibition of microbial growth was judged by comparison with a control culture prepared without any sample tested. Ciprof-loxacin, vancomycin, nitrofurantoin, cefuroxime, ampicillin or nystatin (Sigma) were used as a reference antibacterial or antifungal compounds, respectively.
# (§3) Subsequently, the MIC (Minimal Inhibitory Concentration) of the compounds was ex-amined by the microdilution broth method, using their two-fold dilutions in Mueller- […]
# (§4) Hinton broth or (for bacteria) and RPMI 1640 broth with MOPS (for fungi) prepared in 96-well polystyrene plates. Final concentrations of the compounds ranged from 1000 to 0.488 µg/ml. Microbial suspensions were prepared in 0.85% NaCl with an optical density of 0.5 McFarland standard. Next each bacterial or fungal suspension was added per each well containing broth and various concentrations of the examined compounds. After incuba-
row,MFC/MIC,Structure (SMILES)
1,> 1,"CCCOc1ccc(/C=N/NC(=O)c2ccc(O)cc2O)cc1 [Compound 6, 2,4-dihydroxy-N-[(4-propoxyphenyl)methylidene]benzohydrazide]"

# Same assay, conditions: ATCC10231, read-out: MFC
row,Structure (SMILES),MFC [µg/mL]
1,"CCCOc1ccc(/C=N/NC(=O)c2ccc(O)cc2O)cc1 [Compound 6, 2,4-dihydroxy-N-[(4-propoxyphenyl)methylidene]benzohydrazide]",> 1000

# Same assay, conditions: ATCC10231, read-out: MIC
row,MIC [µg/mL],Structure (SMILES)
1,1000,"CCCOc1ccc(/C=N/NC(=O)c2ccc(O)cc2O)cc1 [Compound 6, 2,4-dihydroxy-N-[(4-propoxyphenyl)methylidene]benzohydrazide]"

# Test system: not given
# Assay: not given
# Settings: not given
row,melting point [°C],Structure (SMILES)
1,251,"CCCOc1ccc(/C=N/NC(=O)c2ccc(O)cc2O)cc1 [Compound 6, 2,4-dihydroxy-N-[(4-propoxyphenyl)methylidene]benzohydrazide]"

# Test system: Staphylococcus aureus ATCC 29213
# Assay: Broth microdilution MIC/MBC
# Assay type: cell-based
# Settings: not given
# Description: as §1
# as §2, with “antimicrobials.” for “antimicrobials. All the used microbial cultures were first subcultured on nu-trient agar or Sabouraud agar at 35°C for 18-24 h or 30°C for 24-48 h for bacteria and fungi,”
# (§5) Samples containing examined compounds were dissolved in dimethyl sulfoxide (DMSO). […]
# as §3, §4
row,MBC/MIC,Structure (SMILES)
1,> 1,"CCCOc1ccc(/C=N/NC(=O)c2ccc(O)cc2O)cc1 [Compound 6, 2,4-dihydroxy-N-[(4-propoxyphenyl)methylidene]benzohydrazide]"

# Same assay, conditions: ATCC29213
MIC [µg/mL],Structure (SMILES),MBC [µg/mL]
1000,"CCCOc1ccc(/C=N/NC(=O)c2ccc(O)cc2O)cc1 [Compound 6, 2,4-dihydroxy-N-[(4-propoxyphenyl)methylidene]benzohydrazide]",> 1000

# Test system: Micrococcus luteus ATCC 10240
# Assay: Broth microdilution MIC/MBC
# Assay type: cell-based
# Settings: not given
# Description: as §1
# as §2, with “antimicrobials.” for “antimicrobials. All the used microbial cultures were first subcultured on nu-trient agar or Sabouraud agar at 35°C for 18-24 h or 30°C for 24-48 h for bacteria and fungi,”
# as §5, §3, §4
row,MBC/MIC,Structure (SMILES)
1,> 1,"CCCOc1ccc(/C=N/NC(=O)c2ccc(O)cc2O)cc1 [Compound 6, 2,4-dihydroxy-N-[(4-propoxyphenyl)methylidene]benzohydrazide]"

# Same assay, conditions: ATCC10240
row,Structure (SMILES),MBC [µg/mL]
1,"CCCOc1ccc(/C=N/NC(=O)c2ccc(O)cc2O)cc1 [Compound 6, 2,4-dihydroxy-N-[(4-propoxyphenyl)methylidene]benzohydrazide]",> 1000

# Same assay, conditions: ATCC10240, read-out: MIC
row,MIC [µg/mL],Structure (SMILES)
1,1000,"CCCOc1ccc(/C=N/NC(=O)c2ccc(O)cc2O)cc1 [Compound 6, 2,4-dihydroxy-N-[(4-propoxyphenyl)methylidene]benzohydrazide]"

# Test system: Staphylococcus epidermidis ATCC 12228
# Assay: Broth microdilution MIC/MBC
# Assay type: cell-based
# Settings: not given
# Description: as §1
# as §2, with “antimicrobials.” for “antimicrobials. All the used microbial cultures were first subcultured on nu-trient agar or Sabouraud agar at 35°C for 18-24 h or 30°C for 24-48 h for bacteria and fungi,”
# as §5, §3, §4
row,MBC/MIC,Structure (SMILES)
1,> 1,"CCCOc1ccc(/C=N/NC(=O)c2ccc(O)cc2O)cc1 [Compound 6, 2,4-dihydroxy-N-[(4-propoxyphenyl)methylidene]benzohydrazide]"

# Same assay, conditions: ATCC12228
row,Structure (SMILES),MBC [µg/mL]
1,"CCCOc1ccc(/C=N/NC(=O)c2ccc(O)cc2O)cc1 [Compound 6, 2,4-dihydroxy-N-[(4-propoxyphenyl)methylidene]benzohydrazide]",> 1000

# Same assay, conditions: ATCC12228, read-out: MIC
row,MIC [µg/mL],Structure (SMILES)
1,1000,"CCCOc1ccc(/C=N/NC(=O)c2ccc(O)cc2O)cc1 [Compound 6, 2,4-dihydroxy-N-[(4-propoxyphenyl)methylidene]benzohydrazide]"

# Test system: Proteus mirabilis ATCC 12453
# Assay: Broth microdilution MIC/MBC
# Assay type: cell-based
# Settings: ATCC12453
# Description: as §1
# as §2, with “antimicrobials.” for “antimicrobials. All the used microbial cultures were first subcultured on nu-trient agar or Sabouraud agar at 35°C for 18-24 h or 30°C for 24-48 h for bacteria and fungi,”
# as §5, §3, §4
row,MIC [µg/mL],Structure (SMILES)
1,> 1000,"CCCOc1ccc(/C=N/NC(=O)c2ccc(O)cc2O)cc1 [Compound 6, 2,4-dihydroxy-N-[(4-propoxyphenyl)methylidene]benzohydrazide]"

# Test system: Staphylococcus aureus ATCC 43300
# Assay: Broth microdilution MIC/MBC
# Assay type: cell-based
# Settings: Staphylococcus aureus ATCC 43300 (MRSA)
# Description: as §1
# as §2, with “antimicrobials.” for “antimicrobials. All the used microbial cultures were first subcultured on nu-trient agar or Sabouraud agar at 35°C for 18-24 h or 30°C for 24-48 h for bacteria and fungi,”
# as §5, §3, §4
MBC/MIC,MIC [µg/mL],Structure (SMILES),MBC [µg/mL]
> 1,1000,"CCCOc1ccc(/C=N/NC(=O)c2ccc(O)cc2O)cc1 [Compound 6, 2,4-dihydroxy-N-[(4-propoxyphenyl)methylidene]benzohydrazide]",> 1000

# Test system: Salmonella typhimurium ATCC 14028
# Assay: Broth microdilution MIC/MBC
# Assay type: cell-based
# Settings: Salmonella enterica
# Description: as §1
# as §2, with “antimicrobials.” for “antimicrobials. All the used microbial cultures were first subcultured on nu-trient agar or Sabouraud agar at 35°C for 18-24 h or 30°C for 24-48 h for bacteria and fungi,”
# as §5, §3, §4
row,MIC [µg/mL],Structure (SMILES)
1,> 1000,"CCCOc1ccc(/C=N/NC(=O)c2ccc(O)cc2O)cc1 [Compound 6, 2,4-dihydroxy-N-[(4-propoxyphenyl)methylidene]benzohydrazide]"

# Test system: Pseudomonas aeruginosa ATCC 9027
# Assay: Broth microdilution MIC/MBC
# Assay type: cell-based
# Settings: ATCC9027
# Description: as §1
# as §2, with “antimicrobials.” for “antimicrobials. All the used microbial cultures were first subcultured on nu-trient agar or Sabouraud agar at 35°C for 18-24 h or 30°C for 24-48 h for bacteria and fungi,”
# as §5, §3, §4
row,MIC [µg/mL],Structure (SMILES)
1,> 1000,"CCCOc1ccc(/C=N/NC(=O)c2ccc(O)cc2O)cc1 [Compound 6, 2,4-dihydroxy-N-[(4-propoxyphenyl)methylidene]benzohydrazide]"
